Data as given in US20240196899A1, “PESTICIDAL MIXTURES” (priority 2021, published 2024).
Read-outs that look alike come from different tables or passages of the source.

Tests used:
M. persicae = assay: Insecticidal % control against M. persicae, Colby synergy; assay type: in vivo, Myzus persicae
Experimental: (§1) Colby's method is used to determine if synergy exists for a combination of active ingredients. According to Colby, the expected action (E) of active ingredients A+B is:
(§2) [formula] • where E=expected efficacy, A and B=the efficacy of two active ingredients A and B at a given dose.
(§3) When the percentage of control observed (O) for the combination is greater than the expected (E) percentage, there is a synergistic effect. The synergism ratio (R) is calculated as the ratio between the […].
(§4) The insecticidal compounds A (Novaluron) and B (mix partner) are formulated as equivalent suspension concentrates to eliminate the effects of differing formulation inerts on biological activity. Efficacy of the insecticidal compositions is evaluated with reference to a scale of 0% to 100% in comparison with untreated control plots. 0 means no damage and 100 means complete destruction of the harmful pests.
(§5) Likewise following experimentations were done on other mixtures of novaluron on various pests, the result of which are summarized in the below tables: […]

B. tabaci = assay: Insecticidal % control against B. tabaci, Colby synergy; assay type: in vivo, Bemisia tabaci; settings: Table 7, 72 hours after treatment
Experimental: as §1, §2, §3, §4, §5

S. frugiperda = assay: Insecticidal % control against S. frugiperda, Colby synergy; assay type: in vivo, Spodoptera frugiperda; settings: 120 hours after treatment
Experimental: as §1, §2, §3, §4, §5

T. urticae = assay: Insecticidal % control against T. urticae, Colby synergy; assay type: in vivo, Tetranychus urticae
Experimental: as §1, §2, §3, §4, §5

[1] = test system: Cotton Leafworm, S. littoralis; assay: Insecticidal % control against Cotton Leafworm, S. littoralis, Colby synergy; assay type: in vivo, Spodoptera littoralis; settings: 72 hours after treatment
Experimental: as §1, §2, §3, §4, §5

F. occidentalis = assay: Insecticidal % control against F. occidentalis, Colby synergy; assay type: in vivo, Frankliniella occidentalis
Experimental: as §1, §2, §3, §4, §5

H. halys = assay: Insecticidal % control against H. halys, Colby synergy; assay type: in vivo, Halyomorpha halys; settings: Table 20 B; 144 hours after treatment; 5 ppm
Experimental: as §1, §2, §3, §4, §5

A. gossypii = assay: Insecticidal % control against A. gossypii, Colby synergy; assay type: in vivo, Aphis gossypii; settings: 96 hours after treatment
Experimental: as §1, §2, §3, §4, §5

[2] = test system: Spodoptera littoralis larvae; assay: Larval mortality of S. littoralis fed on treated castor bean leaves (tank mix novaluron + methoxyfenozide), Colby synergy; assay type: in vivo; settings: Spodoptera littoralis, in Ricinus communis, Table 1, 0.01 mg a.i./L of each active
Experimental: as §1, §2, §3
A representative experiment was conducted to evaluate the insecticidal control of novaluron, a compound II, namely methoxyfenozide as well as a mixture of novaluron and methoxyfenozide against Spodoptera littoralis larvae.
(§6) The experiments were conducted by applying commercially available compositions of Novaluron (Rimon®) and methoxyfenozide (Runner®) alone or together. The compositions were diluted with water to the stated concentration of the active compound.
(§7) The following active ingredients and their mixtures were evaluated: • Novaluron: 0.01 mg a.i./liter • Methoxyfenozide: 0.01 mg a.i./liter • Novaluron+Methoxyfenozide 0.01 mg a.i./liter+0.01 mg a.i./liter
(§8) To evaluate the insecticidal control of novaluron and methoxyfenozide alone and in a binary mixture, castor bean leaves were treated with the above listed treatments. The treated leaves were exposed for 4-day feeding to 3rd-instar Spodoptera littoralis and the larvae were exposed for additional 4 days on untreated leaves. Larval mortality was determined at day 4 and 8. The treatments were composed of 3-5 replicates of 10 larvae each.

[3] = test system: Spodoptera littoralis larvae; assay: Larval weight gain (LWG) of S. littoralis on treated castor bean leaves; assay type: in vivo; settings: Table 3
Experimental: as §6, §7, §8
Larval weight gain (LWG) was also measured in order to determine the effectiveness of the mixture of novaluron and methoxyfenozide when compared to the solo application of novaluron and methoxyfenozide.
Table 3 below summarizes the larval weight gain (LWG) (compared to the control), that was determined 4 days after treatment for the mixture of novaluron and methoxyfenozide.

T. absoluta = assay: Insecticidal % control against T. absoluta, Colby synergy; assay type: in vivo, Tuta absoluta; settings: 72 hours after treatment
Experimental: as §1, §2, §3, §4, §5

Molecule: COP(=O)(NC(C)=O)SC (centres unmarked) [Acephate]
- Observed % control (O) (M. persicae; Table 17 A, 72 hours after treatment, 2 ppm): 66%
- Observed % control (O) (M. persicae; Table 17 B, 7 days after treatment, 2 ppm): 75.0%

Molecule: C[C@]1(COC(=O)C2CC2)[C@@H]2C[C@H](O)[C@@]3(C)Oc4cc(-c5cccnc5)oc(=O)c4[C@H](O)[C@@H]3[C@@]2(C)CC[C@@H]1OC(=O)C1CC1 [Afidopyropen]
- Observed % control (O) (B. tabaci; 7 ppm): 35.1%
- Observed % control (O) (B. tabaci; 35 ppm): 49.8%

Molecule: CN(C(=O)c1ccccc1)c1cccc(C(=O)Nc2c(Br)cc(C(F)(C(F)(F)F)C(F)(F)F)cc2C(F)(F)F)c1F [Broflanilide]
- Observed % control (O) (S. frugiperda; Table 9, 0.001 ppm): 10%
- Observed % control (O) (S. frugiperda; Table 9, 0.01 ppm): 20%

Molecule: CCOCn1c(-c2ccc(Cl)cc2)c(C#N)c(Br)c1C(F)(F)F [Chlorfenapyr]
- Observed % control (O) (T. urticae; Table 14 A, 48 hours after treatment, 2.4 ppm): 64%
- Observed % control (O) (T. urticae; Table 14 A, 48 hours after treatment, 24 ppm): 79%
- Observed % control (O) (T. urticae; Table 14 B, 72 hours after treatment, 2.4 ppm): 78%
- Observed % control (O) (T. urticae; Table 14 B, 72 hours after treatment, 24 ppm): 86%
- Observed % control (O) (T. urticae; Table 14 C, 7 days after treatment, 2.4 ppm): 86%
- Observed % control (O) (T. urticae; Table 14 C, 7 days after treatment, 24 ppm): 94%

Molecule: CN/C(=N/CC1CCOC1)N[N+](=O)[O-] (centres unmarked) [Dinotefuran]
- Observed % control (O) ([1]; Table 16, 0.04 ppm): 25%

Molecule: N#Cc1nn(-c2c(Cl)cc(C(F)(F)F)cc2Cl)c(N)c1[S+]([O-])C(F)(F)F (centres unmarked) [Fipronil]
- Observed % control (O) (F. occidentalis; Table 20 C, 48 hours after treatment, 1 ppm): 66.0%
- Observed % control (O) (F. occidentalis; Table 20 D, 72 hours after treatment, 1 ppm): 70.0%
- Observed % control (O) (F. occidentalis; Table 20 D, 72 hours after treatment, 100 ppm): 90.0%
- Observed % control (O) (F. occidentalis; Table 20 E, 7 days after treatment, 1 ppm): 84.0%
- Observed % control (O) ([1]; Table 20 A, 0.002 ppm): 0%
- Observed % control (O) ([1]; Table 20 A, 0.02 ppm): 5%
- Observed % control (O) (H. halys): 87.5%

Molecule: O=C(N=c1ccccn1Cc1ccc(Cl)nc1)C(F)(F)F [Flupyrimin]
- Observed % control (O) ([1]; Table 12, 12 ppm): 0%

Molecule: CCN1OCC(NC(=O)c2ccc(C3=NOC(c4cc(Cl)c(F)c(Cl)c4)(C(F)(F)F)C3)cc2C)C1=O (centres unmarked) [Isocycloseram]
- Observed % control (O) ([1]; Table 8, 12 ppm): 12.5%

Molecule: CCOC(=O)CC(SP(=S)(OC)OC)C(=O)OCC (centres unmarked) [Malathion]
- Observed % control (O) (F. occidentalis; Table 18 B, 72 hours after treatment, 5 ppm): 6.0%
- Observed % control (O) (F. occidentalis; Table 18 B, 72 hours after treatment, 500 ppm): 80.0%
- Observed % control (O) (A. gossypii; Table 18 A, 100 ppm): 81.7%

Molecule: COc1cccc(C(=O)NN(C(=O)c2cc(C)cc(C)c2)C(C)(C)C)c1C [Methoxyfenozide]
- mortality at 0.01 µg/mL ([2]; 96 h, 3rd-instar larvae, 4-day feeding on treated leaves, day 4, read-out: Larval mortality, % (observed) 4 d): 4.1%
- mortality at 0.01 µg/mL ([2]; 4 days on treated then 4 days on untreated leaves, day 8, read-out: Larval mortality, % (observed) 8 d): 12%
- LWG % rel. Control ([3]; 4 days after treatment, 0.01 mg a.i./L of each active): 93 % rel. Control
- effect on the weight gain of the Spodoptera littoralis larvae ([3]; applied alone): neither novaluron nor methoxyfenozide alone have any effect on the weight gain
- Observed % control (O) (T. absoluta; Table 2, 3 ppm): 16.7%

Molecule: CN(C(=O)c1cc(-c2cnn(-c3c(Cl)cc(C(F)(C(F)(F)F)C(F)(F)F)cc3Cl)c2)cnc1Cl)C1CC1 [Nicofluprole]
- Observed % control (O) ([1]; Table 21, 12 ppm): 0%

Molecule: Cc1cc(C)c(C2=C(OC(=O)CC(C)(C)C)C3(CCCC3)OC2=O)c(C)c1 [Spiromesifen]
- Observed % control (O) (M. persicae; Table 19 B, 7 days after treatment, 5 ppm): 58.3%
- Observed % control (O) (A. gossypii; Table 19 A, 500 ppm): 75.3%

Molecule: CCOC(=O)OC1=C(c2cc(C)ccc2C)C(=O)N[C@]12CC[C@@H](OC)CC2 [Spirotetramat]
- Observed % control (O) (M. persicae; Table 6 A, 72 hours after treatment, 100 ppm): 68%
- Observed % control (O) (M. persicae; Table 6 B, 7 days after treatment, 100 ppm): 85.7%
- Observed % control (O) (T. urticae; Table 6 C, 48 hours after treatment, 600 ppm): 8.0%
- Observed % control (O) (T. urticae; Table 6 D, 72 hours after treatment, 6 ppm): 6.0%
- Observed % control (O) (T. urticae; Table 6 D, 72 hours after treatment, 600 ppm): 14.0%
- Observed % control (O) (T. urticae; Table 6 E, 7 days after treatment, 600 ppm): 16.2%

Molecule: CC(c1ccc(C(F)(F)F)nc1)S(C)(=O)=NC#N (centres unmarked) [Sulfoxaflor]
- Observed % control (O) (M. persicae; Table 15 A, 48 hours after treatment, 0.5 ppm): 64%
- Observed % control (O) (M. persicae; Table 15 B, 72 hours after treatment, 0.5 ppm): 70%
- Observed % control (O) (M. persicae; Table 15 B, 72 hours after treatment, 2.5 ppm): 82%

Molecule: CNC(=O)c1cc(C#N)cc(C)c1NC(=O)c1cc(Cn2nnc(C(F)(F)F)n2)nn1-c1ncccc1Cl [Tetraniliprole]
- Observed % control (O) (S. frugiperda; Table 10 A, 0.001 ppm): 0%
- Observed % control (O) (S. frugiperda; Table 10 A, 0.01 ppm): 0%
- Observed % control (O) ([1]; Table 10 B, 0.004 ppm): 7.5%
- Observed % control (O) ([1]; Table 10 B, 0.02 ppm): 17.5%
- Observed % control (O) ([1]; Table 10 B, 0.1 ppm): 95%

Molecule: CCN(C(=O)CCSCCC(F)(F)F)c1cn(-c2cccnc2)nc1Cl [Tyclopyrazoflor]
- Observed % control (O) ([1]; Table 13, 12 ppm): 12.5%

Molecule: Dicloromezotiaz
- Observed % control (O) ([1]; Table 11, 12 ppm): 0%

Molecule: Spinetoram
- Observed % control (O) (T. absoluta; Table 5 C, 1 ppm): 50%
- Observed % control (O) (T. absoluta; Table 5 C, 3 ppm): 33.3%
- Observed % control (O) (T. absoluta; Table 5 C, 10 ppm): 83.3%
- Observed % control (O) (F. occidentalis; Table 5 D, 48 hours after treatment, 3.5 ppm): 18.0%
- Observed % control (O) (F. occidentalis; Table 5 D, 48 hours after treatment, 350 ppm): 78.0%
- Observed % control (O) (F. occidentalis; Table 5 E, 72 hours after treatment, 3.5 ppm): 22.0%
- Observed % control (O) (F. occidentalis; Table 5 E, 72 hours after treatment, 350 ppm): 82.0%
- Observed % control (O) (F. occidentalis; Table 5 F, 7 days after treatment, 3.5 ppm): 30.0%
- Observed % control (O) (F. occidentalis; Table 5 F, 7 days after treatment, 350 ppm): 82.0%
- Observed % control (O) (S. frugiperda; Table 5 A, 0.01 ppm): 20%
- Observed % control (O) (S. frugiperda; Table 5 A, 0.025 ppm): 30%
- Observed % control (O) (S. frugiperda; Table 5 A, 0.05 ppm): 45%
- Observed % control (O) ([1]; Table 5 B, 0.004 ppm): 0%
- Observed % control (O) ([1]; Table 5 B, 0.1 ppm): 80%

Molecule: Spinosad
- Observed % control (O) (F. occidentalis; Table 4 A, 48 hours after treatment, 5.3 ppm): 2.0%
- Observed % control (O) (F. occidentalis; Table 4 B, 72 hours after treatment, 5.3 ppm): 4.0%
- Observed % control (O) (F. occidentalis; Table 4 B, 72 hours after treatment, 530 ppm): 32.0%
- Observed % control (O) (F. occidentalis; Table 4 C, 7 days after treatment, 5.3 ppm): 32.0%
- Observed % control (O) (F. occidentalis; Table 4 C, 7 days after treatment, 530 ppm): 60.0%
